This data set is described as follows: Dynamic vapor sorption (DVS) of filler excipients. In kind it is physicochemical. To be noted: excipient alone; humidity of 90% RH. The source says: Also noted were the stability results for experimental formulation E, blended with lactose anhydrous. […] Lactose anhydrous was used in blend E rather than lactose monohydrate due to concerns regarding the impact of water upon the degradation of PF-06651600-15. To further explore the hygroscopic properties of lactose monohydrate, dynamic vapor sorption (DVS) traces were generated for both lactose anhydrous and lactose monohydrate (FIG. 24). The results for both were similar as the mass increased less than 2% at a humidity of 90% RH.

On to `OC[C@H]1O[C@@H](O[C@H]2[C@H](O)[C@@H](O)C(O)O[C@@H]2CO)[C@H](O)[C@@H](O)[C@H]1O` (stereo partly shown) [lactose anhydrous], for which the “Mass increase (DVS)” value is around 1.1%.
